Experimental data: US20120128788A1, “COLLAGEN PRODUCTION ENHANCER” (SOFSERA CORPORATION, priority 2009, published 2012)
Values joined by “and” are separate entries in the source; they are usually repeats but may differ in a detail not shown here. Equal values may be shown once.

System: Fibroblasts of a normal human
Experiment: Test for determining activity of fibroblast to enhance type I collagen production (ELISA of culture medium)
Assay type: cell-based
Conditions: positive control, 25 μM, 24 h, n=6
Procedure: Fibroblasts of a normal human were cultured for 24 hours in 0.5% FBS-DMEM culture medium containing the test sample, and the amount of collagen in the culture medium was quantified by ELISA. The test was carried out by repeating six times for each condition (n=6). As a positive control (P.C.), magnesium ascorbyl phosphate (VCPMg) was used. The test samples employed were the calcined hydroxyapatite that is produced in the Production Example 1 and the non-calcined hydroxyapatite that is used in the Production Example 2.

Structure (SMILES): O=C1O[C@H]([C@@H](O)CO)C([O-])=C1OP(=O)([O-])[O-].O=C1O[C@H]([C@@H](O)CO)C([O-])=C1OP(=O)([O-])[O-].[Mg+2].[Mg+2].[Mg+2] [VC-PMg, magnesium ascorbyl phosphate]
- Collagen Mean ± SD: 24.28 ± 1.06 μg/mg protein and 19.75 ± 1.11 μg/mg protein
